Test results: patent publication US20110152212A1, “Aqueous Formulations” (priority 2007, published 2011)
Converted amounts (≈) assume the structure as drawn.

Assays:
[1] = Solubility in Example 7 formulation (hydrogel in 50:50 wt % water/ethanol); assay type: physicochemical; conditions: 50:50 wt % water/ethanol with polyvinylalcohol and butylidene polymer; for solubility: aqueous with cosolvent or surfactant or cyclodextrin
From the text: As an alternative to the general procedure described in Example 2 and the procedures described in other examples, a solvent may comprise a 50:50 wt % water/ethanol solution. The polyvinylalcohol and butylidene polymer may be included in such a solvent and the mixture may then be acidified to a pH of not less than 2.5 to cause polyvinylalcohol and butylidene polymer to react in an acid catalysed reaction. A drug of low solubility may then be added to the mixture as described in the other examples.
(§1) J. Pharm 302(2005), 18-28 and S. I. F. Badaway et al, Int. J. Pharmaceut.128(1996), 45-54.

[2] = Intrinsic solubility of drug; assay type: physicochemical
From the text: as §1

[3] = Solubility in 10% w/v hydroxypropyl cyclodextrin solution; assay type: physicochemical; conditions: for solubility: 10% w/v hydroxypropyl cyclodextrin solution, aqueous with cosolvent or surfactant or cyclodextrin, read-out: Solubility in 10% w/v Hydroxypropyl Cyclodextrin soln.
From the text: as §1

[4] = aqueous formulation, Poval 220 polyvinylalcohol/butylidene polymer hydrogel (Example 3 process)
[5] = Time for solid drug to dissolve in acidified hydrogel mixture at ambient temperature with stirring; assay type: physicochemical; conditions: 0.2 wt % drug in 0.5 wt % hydrogel, pH about 2.5, ambient temperature
Description: A 0.5 wt % formulation of a hydrogel was prepared comprising Poval 220 polyvinylalcohol and the butylidene polymer of Example 1 in the weight ratio 10:1. The pH of the mixture was lowered to about 2.5 by addition of hydrochloric acid and, with the pH at the lowered level, doxorubicin, a solid red powder, was added at ambient temperature with stirring to give a level of 0.2 wt % doxorubicin in the mixture. […] After the formulation has been prepared, the pH may be raised to about 7 by addition of alkali to neutralise it.
A 2 wt % formulation of a hydrogel was prepared comprising KH-20 polyvinylalcohol and the butylidene polymer of Example 1 in a weight ratio 10:1. The pH of the mixture was lowered to about 2.5, by addition of hydrochloric acid. Then, doxycycline, in a solid form, was added at ambient temperature with stirring to give a level of 0.5 wt % of doxycycline in the mixture. The doxycycline appeared to dissolve in the water within about 15 minutes to give a clear pale yellow mixture which appeared to comprise a solution but more likely comprises complexed doxycycline.

[6] = physchem; conditions: pH 2.5, aqueous with cosolvent or surfactant or cyclodextrin, thermodynamic from solid

| SMILES | solubility [1] [mg/mL] | Intrinsic Solubility [2] [mg/mL] | solubility [3] [mg/mL] | solubility [2] [mg/mL] | also measured |
| --- | --- | --- | --- | --- | --- |
| Clc1ccccc1C(c1ccccc1)(c1ccccc1)n1ccnc1 [Clotrimazole] | 11.8 (≈ 34.2 mM) | 0.07 | 1.21 (≈ 3.51 mM) |  |  |
| COc1cccc2c1C(=O)c1c(O)c3c(c(O)c1C2=O)C[C@@](O)(C(=O)CO)C[C@@H]3O[C@H]1C[C@H](N)[C@H](O)[C@H](C)O1 [doxorubicin] |  |  |  |  | saturation solubility [4]: 11.5 % w/v; appeared to dissolve in the water (time) [5]: substantially instantaneously; solubility [6]: 115 mg/mL (≈ 212 mM) |
| Clc1ccc(COC(Cn2ccnc2)c2ccc(Cl)cc2Cl)c(Cl)c1 (stereo not drawn) [Miconazole] | 4.7 (≈ 11.3 mM) |  | 2.46 (≈ 5.91 mM) | 0.09 (≈ 0.216 mM) |  |
| Clc1ccc(COC(Cn2ccnc2)c2ccc(Cl)cc2Cl)cc1 (stereo not drawn) [Econazole] | 12.6 (≈ 33 mM) |  | 4.99 (≈ 13.1 mM) | 0.37 (≈ 0.969 mM) |  |
| CC(C)c1cccc(C(C)C)c1O [Propafol] |  | 0.16 |  |  | Example 7 formulation (solubility) [1]: 34.8 mg/mL; Solubility in 10% w/v Hydroxypropyl Cyclodextrin soln. [3]: 7.69 mg/mL (≈ 43.1 mM) |
